# Read-outs that look alike come from different tables or passages of the source.
# Tests used:
# Zymoseptoria tritici = test: Fungicidal activity: leaf blotch of wheat (SEPTTR), wheat seedlings, booth sprayer to run-off or track spray; assay type: in vivo; conditions: for pest or weed control at 121.5 g/ha: Low-Volume Cereal Activity at 121.5 g/H; for pest or weed control at 100 ppm: High-Volume Cereal Activity at 100 ppm
# Puccinia triticina = test: Fungicidal activity: wheat brown rust (PUCCRT), wheat seedlings, booth sprayer to run-off or track spray; assay type: in vivo; conditions: for pest or weed control at 121.5 g/ha: Low-Volume Cereal Activity at 121.5 g/H; for pest or weed control at 100 ppm: High-Volume Cereal Activity at 100 ppm
# [1] = 24 h, 1 Day Protectant, read-out: SEPTTR 1DP
# [2] = 72 h, 3 Day Curative, read-out: SEPTTR 3DC
# [3] = 24 h, 1 Day Protectant, read-out: PUCCRT 1DP
# [4] = 72 h, 3 Day Curative, read-out: PUCCRT 3DC
# [5] = 3DC (Day Curative), read-out: SEPTTR 3DC
# [6] = 3DC (Day Curative), read-out: PUCCRT 3DC
smiles,measurement,setting,value
CC[C@@H](c1ccccc1)[C@H](C)OC(=O)[C@H](C)NC(=O)c1nccc(OC)c1OC(C)=O [compound 283],pest or weed control at 121.5 g/ha,Zymoseptoria tritici; [1],0 to 80%
same,pest or weed control at 121.5 g/ha,Zymoseptoria tritici; [2],80 to 100%
same,pest or weed control at 121.5 g/ha,Puccinia triticina; [3],80 to 100%
same,pest or weed control at 121.5 g/ha,Puccinia triticina; [4],80 to 100%
COc1ccnc(C(=O)N[C@@H](C)C(=O)O[C@@H](C)[C@H](Cc2ccc(F)cc2)C(C)(C)OCc2ccccc2)c1OC(C)=O [compound 229],pest or weed control at 121.5 g/ha,Zymoseptoria tritici; [1],80 to 100%
same,pest or weed control at 121.5 g/ha,Zymoseptoria tritici; [2],0 to 80%
same,pest or weed control at 121.5 g/ha,Puccinia triticina; [3],0 to 80%
CC[C@H](CC1CC1)[C@@H](Cc1ccccc1)[C@H](C)OC(=O)[C@H](C)NC(=O)c1nccc(OC)c1O [compound 102],pest or weed control at 100 ppm,Zymoseptoria tritici; [1],0 to 80%
same,pest or weed control at 100 ppm,Zymoseptoria tritici; [5],80 to 100%
same,pest or weed control at 100 ppm,Puccinia triticina; [3],80 to 100%
same,pest or weed control at 100 ppm,Puccinia triticina; [6],80 to 100%
COc1ccnc(C(=O)N[C@@H](C)C(=O)O[C@@H](C)[C@@H](COCCC(C)C)Cc2ccc(F)cc2)c1OCOC(C)=O [compound 251],pest or weed control at 121.5 g/ha,Zymoseptoria tritici; [1],0 to 80%
same,pest or weed control at 121.5 g/ha,Zymoseptoria tritici; [2],80 to 100%
same,pest or weed control at 121.5 g/ha,Puccinia triticina; [3],80 to 100%
same,pest or weed control at 121.5 g/ha,Puccinia triticina; [4],0 to 80%
CC[C@H](Cc1ccc(C(F)(F)F)cc1)[C@@H](Cc1ccc(F)cc1)[C@H](C)OC(=O)[C@H](COC)NC(=O)c1nccc(OC)c1OC(C)=O [compound 181],pest or weed control at 121.5 g/ha,Zymoseptoria tritici; [1],0 to 80%
same,pest or weed control at 121.5 g/ha,Zymoseptoria tritici; [2],0 to 80%
same,pest or weed control at 121.5 g/ha,Puccinia triticina; [3],80 to 100%
same,pest or weed control at 121.5 g/ha,Puccinia triticina; [4],0 to 80%
COc1ccnc(C(=O)N[C@@H](C)C(=O)O[C@@H](C)[C@H](Cc2ccccc2)C(C)C)c1OC(C)=O [compound 205],pest or weed control at 121.5 g/ha,Zymoseptoria tritici; [1],80 to 100%
same,pest or weed control at 121.5 g/ha,Zymoseptoria tritici; [2],80 to 100%
same,pest or weed control at 121.5 g/ha,Puccinia triticina; [3],80 to 100%
same,pest or weed control at 121.5 g/ha,Puccinia triticina; [4],80 to 100%
CCCO[C@H](CC)[C@@H](Cc1ccccc1)[C@H](C)OC(=O)[C@H](C)NC(=O)c1nccc(OC)c1O [compound 92],pest or weed control at 100 ppm,Zymoseptoria tritici; [1],80 to 100%
same,pest or weed control at 100 ppm,Zymoseptoria tritici; [5],80 to 100%
same,pest or weed control at 100 ppm,Puccinia triticina; [3],80 to 100%
same,pest or weed control at 100 ppm,Puccinia triticina; [6],80 to 100%
COc1ccnc(C(=O)N[C@@H](C)C(=O)O[C@@H](C)[C@H](Cc2ccc(F)cc2)C(C)(C)OC)c1OC(C)=O [compound 232],pest or weed control at 121.5 g/ha,Zymoseptoria tritici; [1],0 to 80%
same,pest or weed control at 121.5 g/ha,Zymoseptoria tritici; [2],0 to 80%
same,pest or weed control at 121.5 g/ha,Puccinia triticina; [3],0 to 80%
CCCC[C@H](c1ccccc1)[C@H](C)OC(=O)[C@H](C)NC(=O)c1nccc(OC)c1OC(=O)C(C)C [compound 198],pest or weed control at 121.5 g/ha,Zymoseptoria tritici; [1],80 to 100%
same,pest or weed control at 121.5 g/ha,Zymoseptoria tritici; [2],80 to 100%
same,pest or weed control at 121.5 g/ha,Puccinia triticina; [3],0 to 80%
same,pest or weed control at 121.5 g/ha,Puccinia triticina; [4],0 to 80%
CCCOC[C@@H](Cc1ccc(OC)cc1)[C@H](C)OC(=O)[C@H](C)NC(=O)c1nccc(OC)c1O [compound 143],pest or weed control at 100 ppm,Zymoseptoria tritici; [1],80 to 100%
same,pest or weed control at 100 ppm,Zymoseptoria tritici; [5],0 to 80%
same,pest or weed control at 100 ppm,Puccinia triticina; [3],80 to 100%
same,pest or weed control at 100 ppm,Puccinia triticina; [6],0 to 80%
COc1ccnc(C(=O)N[C@@H](C)C(=O)O[C@@H](C)[C@@H](COCc2ccccc2)Cc2ccc(F)cc2)c1OCOC(C)=O [compound 239],pest or weed control at 121.5 g/ha,Zymoseptoria tritici; [1],80 to 100%
same,pest or weed control at 121.5 g/ha,Zymoseptoria tritici; [2],0 to 80%
same,pest or weed control at 121.5 g/ha,Puccinia triticina; [3],80 to 100%
same,pest or weed control at 121.5 g/ha,Puccinia triticina; [4],0 to 80%
COc1ccnc(C(=O)N[C@@H](C)C(=O)O[C@@H](C)[C@@H](COCc2ccccc2)Cc2ccccc2)c1OC(C)=O [compound 227],pest or weed control at 121.5 g/ha,Zymoseptoria tritici; [1],80 to 100%
same,pest or weed control at 121.5 g/ha,Zymoseptoria tritici; [2],0 to 80%
same,pest or weed control at 121.5 g/ha,Puccinia triticina; [3],0 to 80%
same,pest or weed control at 121.5 g/ha,Puccinia triticina; [4],0 to 80%
CCCOC[C@@H](Cc1ccccc1)[C@H](C)OC(=O)[C@H](C)NC(=O)c1nccc(OC)c1OCOC(C)=O [compound 162],pest or weed control at 100 ppm,Zymoseptoria tritici; [1],80 to 100%
same,pest or weed control at 121.5 g/ha,Zymoseptoria tritici; [1],80 to 100%
same,pest or weed control at 121.5 g/ha,Zymoseptoria tritici; [2],80 to 100%
same,pest or weed control at 100 ppm,Zymoseptoria tritici; [5],80 to 100%
same,pest or weed control at 100 ppm,Puccinia triticina; [3],80 to 100%
same,pest or weed control at 121.5 g/ha,Puccinia triticina; [3],80 to 100%
same,pest or weed control at 121.5 g/ha,Puccinia triticina; [4],80 to 100%
same,pest or weed control at 100 ppm,Puccinia triticina; [6],80 to 100%
CCCC[C@@H]([C@H](C)OC(=O)[C@H](C)NC(=O)c1nccc(OC)c1OCOC(C)=O)[C@H](CC)Oc1ccccc1 [compound 188],pest or weed control at 121.5 g/ha,Zymoseptoria tritici; [1],80 to 100%
same,pest or weed control at 121.5 g/ha,Zymoseptoria tritici; [2],80 to 100%
same,pest or weed control at 121.5 g/ha,Puccinia triticina; [3],80 to 100%
same,pest or weed control at 121.5 g/ha,Puccinia triticina; [4],80 to 100%
COc1ccnc(C(=O)N[C@@H](C)C(=O)O[C@@H](C)[C@H](Cc2ccc(F)cc2)c2ccccc2)c1O [compound 129],pest or weed control at 100 ppm,Zymoseptoria tritici; [1],80 to 100%
same,pest or weed control at 100 ppm,Zymoseptoria tritici; [5],0 to 80%
same,pest or weed control at 100 ppm,Puccinia triticina; [3],80 to 100%
same,pest or weed control at 100 ppm,Puccinia triticina; [6],0 to 80%
COc1ccc(CC(Cc2ccc(OC)cc2)[C@H](C)OC(=O)[C@H](C)NC(=O)c2nccc(OC)c2OCOC(C)=O)cc1 [compound 276],pest or weed control at 121.5 g/ha,Zymoseptoria tritici; [1],80 to 100%
same,pest or weed control at 121.5 g/ha,Zymoseptoria tritici; [2],0 to 80%
same,pest or weed control at 121.5 g/ha,Puccinia triticina; [3],80 to 100%
COCCC(=O)Oc1c(OC)ccnc1C(=O)N[C@@H](C)C(=O)O[C@@H](C)[C@H](CCC(C)C)c1ccccc1 [compound 212],pest or weed control at 121.5 g/ha,Zymoseptoria tritici; [1],80 to 100%
same,pest or weed control at 121.5 g/ha,Zymoseptoria tritici; [2],80 to 100%
same,pest or weed control at 121.5 g/ha,Puccinia triticina; [3],80 to 100%
same,pest or weed control at 121.5 g/ha,Puccinia triticina; [4],80 to 100%
COc1ccnc(C(=O)N[C@@H](C)C(=O)OC(C)C(Cc2cccc(F)c2)Cc2cccc(F)c2)c1OCOC(C)=O (some centres unmarked) [compound 267],pest or weed control at 121.5 g/ha,Zymoseptoria tritici; [1],0 to 80%
same,pest or weed control at 121.5 g/ha,Zymoseptoria tritici; [2],0 to 80%
same,pest or weed control at 121.5 g/ha,Puccinia triticina; [3],0 to 80%
CCCO[C@@H](CC)[C@@H](Cc1ccccc1)[C@H](C)OC(=O)C(C)(C)NC(=O)c1nccc(OC)c1OCOC(C)=O [compound 170],pest or weed control at 100 ppm,Zymoseptoria tritici; [1],0 to 80%
same,pest or weed control at 100 ppm,Zymoseptoria tritici; [5],0 to 80%
same,pest or weed control at 100 ppm,Puccinia triticina; [3],0 to 80%
COc1ccnc(C(=O)N[C@@H](C)C(=O)O[C@@H](C)[C@H](Cc2ccccc2)C(C)(C)OCc2ccccc2)c1OC(C)=O [compound 230],pest or weed control at 121.5 g/ha,Zymoseptoria tritici; [1],80 to 100%
same,pest or weed control at 121.5 g/ha,Zymoseptoria tritici; [2],80 to 100%
same,pest or weed control at 121.5 g/ha,Puccinia triticina; [3],80 to 100%
same,pest or weed control at 121.5 g/ha,Puccinia triticina; [4],0 to 80%
COc1ccnc(C(=O)N[C@@H](C)C(=O)O[C@@H](C)[C@H](Cc2ccccc2)C(C)(C)OCc2ccccc2)c1O [compound 134],pest or weed control at 100 ppm,Zymoseptoria tritici; [1],80 to 100%
same,pest or weed control at 100 ppm,Zymoseptoria tritici; [5],0 to 80%
same,pest or weed control at 100 ppm,Puccinia triticina; [3],80 to 100%
same,pest or weed control at 100 ppm,Puccinia triticina; [6],0 to 80%
CCCC[C@@H]([C@H](C)OC(=O)[C@H](C)NC(=O)c1nccc(OC)c1O)[C@H](CC)Oc1ccccc1 [compound 115],pest or weed control at 100 ppm,Zymoseptoria tritici; [5],80 to 100%
same,pest or weed control at 100 ppm,Puccinia triticina; [3],80 to 100%
same,pest or weed control at 100 ppm,Puccinia triticina; [6],80 to 100%
COc1ccnc(C(=O)N[C@@H](C)C(=O)O[C@@H](C)[C@@H](COCc2ccccc2)Cc2ccccc2)c1O [compound 132],pest or weed control at 100 ppm,Zymoseptoria tritici; [1],0 to 80%
same,pest or weed control at 100 ppm,Zymoseptoria tritici; [5],80 to 100%
same,pest or weed control at 100 ppm,Puccinia triticina; [3],80 to 100%
same,pest or weed control at 100 ppm,Puccinia triticina; [6],80 to 100%
C=C[C@H](Cc1ccc(C(F)(F)F)cc1)[C@@H](Cc1ccc(F)cc1)[C@H](C)OC(=O)[C@H](C)NC(=O)c1nccc(OC)c1OC(C)=O [compound 179],pest or weed control at 121.5 g/ha,Zymoseptoria tritici; [1],0 to 80%
same,pest or weed control at 121.5 g/ha,Zymoseptoria tritici; [2],80 to 100%
same,pest or weed control at 121.5 g/ha,Puccinia triticina; [3],80 to 100%
COc1ccnc(C(=O)N[C@@H](C)C(=O)O[C@@H](C)[C@H](CCC(C)C)c2ccccc2)c1OC(C)=O [compound 210],pest or weed control at 121.5 g/ha,Zymoseptoria tritici; [1],80 to 100%
same,pest or weed control at 121.5 g/ha,Zymoseptoria tritici; [2],80 to 100%
same,pest or weed control at 121.5 g/ha,Puccinia triticina; [3],80 to 100%
same,pest or weed control at 121.5 g/ha,Puccinia triticina; [4],0 to 80%
COC[C@@H](Cc1ccc(F)cc1)[C@H](C)OC(=O)[C@H](C)NC(=O)c1nccc(OC)c1OCOC(C)=O [compound 243],pest or weed control at 121.5 g/ha,Zymoseptoria tritici; [1],0 to 80%
same,pest or weed control at 121.5 g/ha,Zymoseptoria tritici; [2],0 to 80%
same,pest or weed control at 121.5 g/ha,Puccinia triticina; [3],80 to 100%
same,pest or weed control at 121.5 g/ha,Puccinia triticina; [4],80 to 100%

# Reference: US10173971B2, “Picolinamides with fungicidal activity” (DOW AGROSCIENCES LLC, priority 2014, dated 2019)
